pIC50: −log10 of the molar value.
How the values were obtained:
hFOBs cells = assay: 2D MTT cell viability assay, non-cancerous human foetal osteoblasts; assay type: cell-based; conditions: hFOBs (healthy cells), 72 h
Procedure: (§1) The drugs were reconstituted in dimethyl sulfoxide (DMSO) at 1 mg/mL concentration, before being diluted in culture media at the required concentration. A 2D in vitro screening of all the drugs was performed at 72 h in a wide concentration range (0.5; 1.5, 5, 15, 30, 60 and 100 µM) on the three different cell lines in terms of cell viability, and the IC50 was calculated. […] For the models, a composite hydroxyapatite-based scaffold (MgHA/Coll), as a bone-like matrix, was used in combination with MG63 cells.
(§2) Cell culture. […] The cell number and viability were determined using the trypan blue dye exclusion test, and all cell handling procedures were performed under a laminar flow hood in sterility conditions.
(§3) MTT cell viability assay. A quantitative analysis of cell viability was carried out by using MTT assay, following the manufacturer’s instructions. […] After 15 min of incubation under slight stirring conditions, the absorbance of formazan was read at 570 nm by using a Multiskan FC Microplate Photometer (Thermo Fisher Scientific, Waltham, MA, USA). The values of absorbance are directly proportional to the number of metabolic active cells in each well. […]
Statistical Analysis. […] The MTT results were further analysed using one-way analysis of variance (one-way ANOVA) and Dunnett’s multiple comparisons test. […]

SAOS-2 cells = assay: 2D MTT cell viability assay, SAOS-2 osteosarcoma cells; assay type: cell-based, Human; conditions: SAOS-2, 2D, 72 h
Procedure: as §1, with “calculated. The cell morphology in the presence of the complexes was evaluated at 15 and 30 µM concentrations, for MG63 and SAOS-2 and hFOBs cells, respectively, according to the IC50 at 72 h.” for “calculated.”
as §2, §3

MG63 cells = assay: 2D MTT cell viability assay, MG63 osteosarcoma cells; assay type: cell-based, Human
Procedure: as §1, with “calculated. The cell morphology in the presence of the complexes was evaluated at 15 and 30 µM concentrations, for MG63 and SAOS-2 and hFOBs cells, respectively, according to the IC50 at 72 h.” for “calculated.”
as §2, §3

[1] = test system: MG63 cells on bone-mimetic scaffold; assay: 3D scaffold-based osteosarcoma model (3D OS model), MTT cell viability; parameters: species or system Human; conditions: 15 µM, MG63 3D OS model
Procedure: as §1, with “calculated. The cell morphology in the presence of the complexes was evaluated at 15 and 30 µM concentrations, for MG63 and SAOS-2 and hFOBs cells, respectively, according to the IC50 at 72 h.” for “calculated.”
Synthesis of bone-mimetic scaffolds. The Mg-doped hydroxyapatite collagen composite scaffolds were designed and synthesised at ISSMC of CNR of Italy. In brief, 150 g of collagen gel (1 wt%, Opocrin SpA, MO, Italy) was diluted into a phosphoric acid solution (2.4 g in 500 mL; H3PO4, 85 wt.%, Sigma-Aldrich) at room temperature to obtain an acidic aqueous homogenous suspension. […]
MTT cell viability assay. A quantitative analysis of cell viability was carried out by using MTT assay, following the manufacturer’s instructions. […]

How did the pIC50 (hFOBs cells) turn out when `N.N.[Cl][Pt][Cl]` [Cisplatin, cis-[(NH3)2PtCl2], reference compound] was run?
Its pIC50 is 5.39.

What about the pIC50 (hFOBs cells; listed as cisplatin) of the same molecule?
The pIC50 was 5.39.

And the pIC50 (SAOS-2 cells)?
Its pIC50 is 4.86.

What about the “effect on viable cells in 2D standard culture” value (MG63 cells; 15 µM, 2D standard culture, p-value ≤ 0.0001) of the same molecule?
Its value is “significantly reduced the viable cells”.

And the pIC50 (MG63 cells; MG63, 2D, MTT, 72 h)?
The pIC50 was 4.91.

What about the “effect on cell viability in 3D OS model” value [1] of the same molecule?
The value was “did not compromise the cell viability”.

— paper PMC10094171, “Development of Novel Pt(IV)-Carbohydrate Derivatives as Targeted Anticancer Agents against Osteosarcoma” (International Journal of Molecular Sciences, 2023)
